In patent publication US11066629B2, “Lipid metabolism-promoting composition including isoxanthohumol” (SUNTORY HOLDINGS LIMITED, priority 2016, dated 2021):
One block for each compound: values may come before it.

How the values were obtained:
[1] = Solubility in water under ice cooling conditions (Experiment A); type: physicochemical; details: distilled water, ppm on w/v basis
From the text: (§1) The solubility of each of the standard samples of xanthohumol and isoxanthohumol in water (Experiment A) and various solvents (Experiment B) under ice cooling conditions was studied to evaluate the suitability for beverage applications. Xanthohumol and isoxanthohumol were the standard samples obtained in Preparation Example 1 (purity of 95% or higher).
A sample containing distilled water and xanthohumol or isoxanthohumol having a weight corresponding to 0.2% (w/v) of the distilled water was prepared, and each standard sample was allowed to dissolve in distilled water as much as possible by stirring in a vortex mixer for 10 seconds or longer and shaking for about 60 minutes under ice cooling conditions. Further, centrifugation was performed (12,000 rpm, 4° C., for 5 minutes), and the supernatant was collected. This procedure was repeated three times. The finally obtained supernatant was used as a xanthohumol saturated aqueous solution or an isoxanthohumol saturated aqueous solution. The saturated aqueous solution was 100-fold diluted with a 25% aqueous ethanol solution to obtain a sample for analysis. The sample was subjected to quantitative analysis using an LC-MS/MS system (TSQ Quantiva, Thermo Fisher Scientific Inc.) to evaluate the solubility in water. […] Note that ppm is ppm on w/v basis unless otherwise specified. […]

[2] = test system: high-fat diet mouse model; details: repeated dose 30 mg/kg/day; cited from earlier work
[3] = test system: type II diabetes mouse model; details: feed containing xanthohumol at 1%; cited from earlier work
[4] = heating; isoxanthohumol at 100° C.; cited from earlier work
[5] = test system: high-fat diet model; assay: Anti-obesity action in high-fat diet model (body weight, fat weight); type: in vivo, Mice (C57BL/6J)
From the text: The effect of isoxanthohumol on body weight increase and fat accumulation associated with high-fat diet was studied by the following procedure. In the table, “Regular diet” is control diet “D12450J” (product name, Research Diets); “60 kcal % High-fat diet” is very high-fat diet “D12492” (product name, Research Diets); and “Catechins” is a preparation “Polyphenon 70A” (product name, Mitsui Norin Co., Ltd.). Xanthohumol and isoxanthohumol were the standard samples (purity of 95% or higher) obtained in Preparation Example 1. The “Dose” in the table indicates the dose (mg) of the test substance per day per kg body weight. The main evaluation items were the body weight and the fat weight (fat around epididymis, fat around kidney/posterior abdominal wall, and fat around mesentery) of each individual (each item was measured on the last day: day 55 of administration). Mice (C57BL/6J, male, 7 weeks of age, CLEA Japan, Inc.) were purchased, and they were quarantine and acclimatized for one week. […] The selected animals were divided into groups (n=8 in each group) in the group structure shown in Table 1 by the stratified continuous randomization method based on body weight at the end of the acclimatization period. They were fed with free access to specific basic feed and water. The test substance was orally administered once per day for eight weeks. The test substance was administered until day 55, with the dosing start date defined as day 0. The duration was regarded as an administration period. During the administration period, the feed was completely replaced with a frequency of twice a week. The volume of a dosing solution was 10 mL/kg, and the amount of the test substance and the volume of the solution were calculated based on the latest body weight on the administration date. After the administration period, adipose tissue (fat around epididymis, fat around kidney/posterior abdominal wall, fat around mesentery) was extracted, and the weight was measured. Statistical analysis was performed as follows. Specifically, the average and standard error were calculated for body weight and fat weight in each group. Statistical processing was performed using Microsoft Office Excel 2003, and significant difference was tested between the regular diet group and the high-fat diet group and between the high-fat diet group and the groups excluding the regular diet group. As a statistical method, the homogeneity of variance was tested using the F-test. Student's T-test was used for homoscedasticity, and Aspin-Welch t-test was used for heteroscedasticity.

[6] = test system: high-fat diet model; assay: Measurement of triglyceride (TG) content in liver; type: in vivo, Mice (C57BL/6J); details: livers of Example 1
Description: The neutral fat content (also referred to as “triglyceride content” or “TG content”) in the liver was measured using the liver extracted in Example 1. Specifically, the extracted liver was cut to obtain a section of about 30 mg, and 1 mL of a mixed solution containing methanol (Nacalai Tesque, Inc.) and chloroform (Nacalai Tesque, Inc.) at a ratio of 1:1 was added to the section which was then crushed with a bead beater, whereby triglyceride in the liver was extracted. After centrifugation (12000 g, for 15 minutes), the supernatant was collected, the solution was distilled off, and isopropanol was added for re-dissolution, whereby a sample was prepared. The triglyceride content in the sample was measured using Triglyceride E Test Wako (Wako), and the triglyceride content (mg/g) in the liver per unit weight was calculated. The data was presented as average f standard error. Student's t-test was used as a statistical test, and a difference with p<0.05 was considered significant.

[7] = Effect of intake on fat burning, respiratory quotient (Oxymax respirometer); type: in vivo, mice (C57BL/6J); details: isoxanthohumol 0.2% in feed, 7 days, vs control group
From the text: The effect of isoxanthohumol intake on fat burning was studied by the following procedure using a respirometer “Oxymax” (Bio Research Center Co., Ltd.).
As for the group structure, there were two groups: a control group and an isoxanthohumol 0.2% group. Eight mice (C57BL/6J, male, 14 weeks of age, CLFA Japan, Inc.) were purchased and acclimatized for about one week. Then, the mice were divided into the control group and the isoxanthohumol 0.2% group (n=4 in each group) by the stratified continuous randomization method based on body weight. Control diet “D12450J” (Research Diets) was used as basic feed. During the test period, the control group was fed with the basic feed, and the isoxanthohumol 0.2% group was fed with mixed feed of the basic feed and the test substance (isoxanthohumol obtained in Preparation Example 1) at a weight ratio of 0.2% relative to the basic feed.
The test period (a period in which the test substance was ingested, and breath analysis was performed) was seven days. […] Using Oxymax (Bio Research Center Co., Ltd.), the oxygen consumption (VO2) and the carbon dioxide output (VCO2) of each individual were measured over time and recorded.
The respiratory quotient (RQ) was calculated using the following formula 1 from the oxygen consumption (VO2) and the carbon dioxide output (VCO2) at each point. […]

[8] = test system: Acox1 gene; assay: Gene expression in liver by quantitative PCR, high-fat diet model; type: in vivo, mice (C57BL/6J); details: isoxanthohumol 30 or 60 mg/kg/day oral, 14 days
From the text: (§2) Using the high-fat diet model, the effect of isoxanthohumol intake on expression of a gene related to fat burning was studied by the following procedure.
(§3) Thirty-two mice (C57BL/6J, male, 8 weeks of age, CLEA Japan, Inc.) were purchased and acclimatized for about one week. Then, the mice were divided into groups (n=8 in each group) in the group structure shown in Table 2 by the stratified continuous randomization method based on body weight. […] In Table 2, “Regular diet” is control diet “D12450J” (Research Diets), and “60 kcal % High-fat diet” is very high-fat diet “D12492” (Research Diets). Isoxanthohumol as the test substance was the standard sample (purity of 95% or higher) obtained in Preparation Example 1. […]
(§4) The test period was 14 days. […] The amount of the test substance and the volume of the solution were calculated based on the latest body weight on the administration date. […]
(§5) Using the extracted liver and brown adipose tissue, the effect of isoxanthohumol intake on expression of multiple genes related to lipid metabolism was studied. […] Then, cDNAs were synthesized using High-Capacity cDNA Reverse Transcription Kit (product name, Life Technologies Corporation), and the expression levels of genes shown in Table 3 were examined by quantitative PCR (TaqMan probe method) using Fast Universal PCR Master Mix (product name, Life Technologies Corporation). […]

[9] = test system: Cpt1a gene; assay: as above; type: in vivo, mice (C57BL/6J); details: isoxanthohumol 30 or 60 mg/kg/day oral, 14 days
From the text: as §2, §3, §4, §5

[10] = test system: Pgc-1α gene; assay: Gene expression in brown adipose tissue by quantitative PCR, high-fat diet model; type: in vivo, mice (C57BL/6J); details: isoxanthohumol 30 or 60 mg/kg/day oral, 14 days
From the text: as §2, §3, §4, §5

[11] = test system: Ucp1 gene; assay: as above; type: in vivo, mice (C57BL/6J); details: isoxanthohumol 30 or 60 mg/kg/day oral, 14 days
From the text: as §2, §3, §4, §5

[12] = Solubility of isoxanthohumol in various solvents under ice cooling conditions (Experiment B); type: physicochemical; details: for solubility relative to aqueous solution without γ-cyclodextrin: ice cooling
From the text: as §1
Distilled water, a hop extract, and 0.2% (w/v) or 1.0% (w/v) aqueous solution of β-cyclodextrin or γ-cyclodextrin (both Nacalai Tesque, Inc.) were prepared as solvents to study the solubility of isoxanthohumol under ice cooling conditions. As for the hop extract, hops (Saaz) that had been crushed into pellets were extracted with distilled water in an amount 10 times the weight of the pellets by shaking at room temperature for about 60 minutes, and the filtrate obtained by suction filtration was used for the test. The isoxanthohumol concentration in the hop extract was less than 0.5 ppm. A sample containing a solvent and isoxanthohumol having a weight corresponding to 0.2% (w/v) of the solvent was prepared for each of the above solvents, and the standard sample was allowed to dissolve in water as much as possible by stirring in a vortex mixer for 10 seconds or longer and shaking for about 60 minutes under ice cooling conditions. Centrifugation and quantitative analysis were performed as in Experiment A to evaluate the solubility of isoxanthohumol in each solvent.

[13] = test system: apoptosis inhibitor of macrophage (AIM); details: mouse macrophage-derived cells (J774.1) cultured with isoxanthohumol; cited from earlier work
[14] = test system: mouse preadipocyte (3T3-L1); details: 3T3-L1, concentration without cytotoxicity; cited from earlier work
[15] = 60 mg/kg/day oral, day 55, compared to high-fat diet group
[16] = 180 mg/kg/day oral, day 55, compared to high-fat diet group

- Solubility in water (ice cooling conditions) [1]: Less than 0.5 ppm
Compound: COc1cc(O)c(CC=C(C)C)c(O)c1C(=O)/C=C/c1ccc(O)cc1 [xanthohumol]
- body weight increase [2]: suppression of body weight increase
- body weight gain [3]: tendency of suppression of body weight gain
- weight of fat around kidney or the like [3]: decrease
- thermal stability [4]: thermally unstable

- Solubility in water (ice cooling conditions) [1]: 6.3 ppm
- solubility relative to aqueous solution without γ-cyclodextrin ([12]; 0.2% (w/v) γ-cyclodextrin): about 5 times
- solubility relative to aqueous solution without γ-cyclodextrin ([12]; 1.0% (w/v) γ-cyclodextrin): about 18 times
- Solubility (ice cooling conditions) ([12]; solvent: 0.2% β-Cyclodextrin): 18.4 ppm
- Solubility (ice cooling conditions) ([12]; solvent: 0.2% γ-Cyclodextrin): 33.6 ppm
- Solubility (ice cooling conditions) ([12]; solvent: 1.0% β-Cyclodextrin): 52.0 ppm
- Solubility (ice cooling conditions) ([12]; solvent: 1.0% γ-Cyclodextrin): 115.5 ppm
- Solubility (ice cooling conditions) ([12]; solvent: Distilled water): 6.3 ppm
- Solubility (ice cooling conditions) ([12]; solvent: Hop extract): 13.7 ppm
Compound: COc1cc(O)c(CC=C(C)C)c2c1C(=O)CC(c1ccc(O)cc1)O2 (stereo not drawn) [isoxanthohumol]
- fat weight around epididymis [5, 15]: significantly low
- fat weight around mesentery [5, 15]: significantly low
- fat weight around epididymis [5, 16]: significantly low
- fat weight around kidney/posterior abdominal wall [5, 16]: significantly low
- fat weight around mesentery [5, 16]: significantly low
- average body weight compared with xanthohumol medium-dose group ([5]; isoxanthohumol 60 mg/kg vs xanthohumol 60 mg/kg, day 55): equivalent to that of the xanthohumol medium-dose group
- average body weight compared with catechins group ([5]; isoxanthohumol 180 mg/kg vs catechins 300 mg/kg, day 55): better result
- body weight ([5]; isoxanthohumol high-dose 180 mg/kg/day oral, day 55, compared to high-fat diet group): significantly low
- body weight ([5]; isoxanthohumol medium-dose 60 mg/kg/day oral, day 55, compared to high-fat diet group): tended to have a low body weight
- neutral fat (triglyceride) content in the liver ([6]; isoxanthohumol-administered group vs high-fat diet group): significantly lower
- action on neutral fat content in the liver compared with xanthohumol [6]: stronger than that of xanthohumol
- respiratory quotient (RQ) [7]: lower
- gene expression level of Acox1 gene in the liver [8]: significant increase
- gene expression level of Cpt1a gene in the liver [9]: significant increase
- Pgc-1α gene expression in the brown adipose tissue [10]: significant increase
- expression level of Ucp1 gene in brown adipose tissue [11]: increase in expression level
- expression of lipolysis-promoting factor AIM [13]: enhanced expression
- differentiation of the cells into adipocytes [14]: did not suppress differentiation
- thermal stability [4]: stable even at a high temperature of 100 °C
